Test results reported in patent US12319703B2, “Macrocyclic fused pyrazoles as Mcl-1 inhibitors” (ASCENTAGE PHARMA (SUZHOU) CO., LTD., priority 2019, dated 2025).
Read-outs that look alike come from different tables or passages of the source.

How the values were obtained:
OPM-2 cells = experiment: Cell viability assay (OPM-2 cells), CCK-8; assay type: cell-based; conditions: WST, 5% FBS, read-out: OPM2 (WST, 5% FBS)
Protocol: Cell Viability Assay (OPM-2 Cells)
OPM-2 cells were obtained from Deutsche Sammlung von Mikroorganismen und Zellkulturen GmbH (DSMZ). […]
The effect of representative Compounds of the Disclosure on cell viability was determined using Cell Counting Kit-8 (CCK-8) assay (Shanghai Life iLab Bio Technology) according to the manufacturer's instructions. Each tested compound was serially diluted in culture medium, 100 μL of the compound dilution was added into 96-well plates. 100 μL of an OPM-2 cell suspension (20000 cells/well) in culture medium were seeded into the corresponding well of the plate and the cells were incubated at 37° C. in an atmosphere of 5% CO2 for 24 hours. In the next day, 20 μL of CCK-8 solution was added to each well of the plate and incubated for 4 hours.
The plates were read at 450 nm on the microplate spectrophotometer (SpectraMax plus 384, Molecular devices). The readings were normalized to the vehicle cells, and the IC50 was calculated by nonlinear regression analysis using GraphPad Prism 6 software.

NCI-H929 cells = experiment: Cell viability assay (NCI-H929 cells), CCK-8; assay type: cell-based; conditions: WST, 5% FBS
Protocol: Cell Viability Assay (NCI-H929 Cells)
NCI-H929 cells were obtained from American Type Culture Collection (ATCC). Cells were maintained in the recommended culture medium (RPMI 1640) with 10% FBS and 0.05 mM BME at 37° C. and an atmosphere of 5% CO2.
The effect of Compounds on cell viability was determined using Cell Counting Kit-8 (CCK-8) assay according to the manufacturer's instructions. 95 μL of NCI-H929 cell suspension (20000 cells/well) in culture medium were seeded into 96-well plates and cultured 4 hrs. Each tested compound was serially diluted in DMSO, then 5 μL of the compound or DMSO was diluted in 95 μL medium once more. At last, 5 μL of the compound dilution was added to the corresponding well of the cell plate. After the addition of the tested compound, the cells were incubated at 37° C. in an atmosphere of 5% CO2 for 24 hrs. At the end, 10 μL of CCK-8 solution was added to each well of the plate and incubated for 1-4 hours. The plates were read at 450 nm on the microplate reader (BioTek Synergy 1MF). The readings were normalized to the vehicle cells, and the IC50 was calculated by nonlinear regression analysis using GraphPad Prism 6 software.

[1] = target: T1, Mcl-1 protein (residues 171-323) (Homo sapiens, UniProt Q07820); experiment: Inhibition of Mcl-1 by fluorescence polarization (FP) competitive binding assay; conditions: FAM-Bid tracer 2 nM, Mcl-1 20 nM, 30 min
T1 construct: Tag-free Mcl-1 protein (residues 171-323) was used in the FP assay
T1 sequence (Q07820 171-323): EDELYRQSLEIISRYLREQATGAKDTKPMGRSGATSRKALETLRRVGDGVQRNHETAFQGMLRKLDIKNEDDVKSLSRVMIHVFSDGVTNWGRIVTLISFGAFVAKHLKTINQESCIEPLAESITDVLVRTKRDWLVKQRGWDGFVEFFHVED
Protocol: Inhibition of Mcl-1 by Fluorescence Polarization (FP) Assay.
The method used a fluorescein labelled peptide (FAM-Bid) which binds to the Mcl-1 protein leading to an increased anisotropy measured in milli-polarization (mP) values using a plate reader.
A 10-points serial dilution of each compound was prepared in DMSO and 5 μL solution was transferred into flat bottomed, 96-well back plate (final DMSO concentration 5%). 120 μL of Buffer (PBS, 0.01% BGG (Sigma Cat. #SRE0011), 0.01% Triton X-100), containing the Fluorescein labelled peptide (Final concentration 2 nM) and Mcl-1 protein (final concentration 20 nM) was then added. […] 10-points dose response curves were plotted with GraphPad software using Sigmoidal Dose-Response Model and the IC50 values were determined by nonlinear regression fitting of the competition curves.

SMILES	IC50 (NCI-H929 cells; 24 h)	IC50 [1]	IC50 (NCI-H929 cells; Homo sapiens, NCI-H929, 24 h)	IC50 (OPM-2 cells; 24 h)	IC50 (OPM-2 cells; Homo sapiens, OPM-2, 24 h)
Cn1nc2cc1CSc1cc(c3ccccc3c1)OCCCc1c(C(=O)O)n(C)c3c(c(Cl)ccc13)-c1c(nn3c1CCC3)CSC2 (atropisomer, axis not shown) [Cpd. No. 52, (R)-(Z)-1^6-chloro-1^1,6^1-dimethyl-2^5,2^6-dihydro-1^1H,2^4H,6^1H-10-oxa-4,8-dithia-1(7,3)-indola-2(3,2)-pyrrolo[1,2-b]pyrazola-6(3,5)-pyrazola-9(3,1)-naphthalenacyclotridecaphane-1^2-carboxylic acid]	0.063 µM			0.353 µM	
Cn1nc2cc1CSc1cc(c3ccccc3c1)OCCCc1c(C(=O)O)n(C)c3c(c(Cl)ccc13)-c1c(nn3c1CCC3)CSC2 (atropisomer, axis not shown) [Cpd. No. 53, (S)-(Z)-1^6-chloro-1^1,6^1-dimethyl-2^5,2^6-dihydro-1^1H,2^4H,6^1H-10-oxa-4,8-dithia-1(7,3)-indola-2(3,2)-pyrrolo[1,2-b]pyrazola-6(3,5)-pyrazola-9(3,1)-naphthalenacyclotridecaphane-1^2-carboxylic acid]	4.4 µM			5.72 µM	
Cn1nc2cc1CSc1cc(cc(C(F)(F)F)c1)OCCCc1c(C(=O)O)n(C)c3c(c(Cl)ccc13)-c1c(nn3c1COCC3)CSC2 [Cpd. No. 33, (Z)-1^6-chloro-1^1,6^1-dimethyl-9^5-(trifluoromethyl)-2^6,2^7-dihydro-11H,2^4H,6^1H-10-oxa-4,8-dithia-2(3,2)-pyrazolo[5,1-c][1,4]oxazina-1(7,3)-indola-6(3,5)-pyrazola-9(1,3)-benzenacyclotridecaphane-1^2-carboxylic acid]		0.012 µM	0.361 µM		0.965 µM
Cn1nc2cc1CSc1cc(c3ccccc3c1)OCCCc1c(C(=O)O)n(C)c3c(c(Cl)ccc13)-c1c(nn3c1OCC3)CSC2 [compound 6, (Z)-1^6-chloro-1^1,6^1-dimethyl-2^2,2^3-dihydro-1^1H,6^1H-10-oxa-4,8-dithia-2(7,6)-pyrazolo[5,1-b]oxazola-1(7,3)-indola-6(3,5)-pyrazola-9(3,1)-naphthalenacyclotridecaphane-1^2-carboxylic acid]		0.015 µM	0.234 µM		1.35 µM
Cn1nc2cc1CSc1cc(c3ccccc3c1)OCCCc1c(C(=O)O)n(C)c3c(c(Cl)ccc13)-c1c(nn3c1CCC3)CS(=O)(=O)C2 [compound 9, (Z)-1^6-chloro-1^1,6^1-dimethyl-2^5,2^6-dihydro-1‘H,2^4H,6^1H-10-oxa-4,8-dithia-1(7,3)-indola-2(3,2)-pyrrolo[1,2-b]pyrazola-6(3,5)-pyrazola-9(3,1)-naphthalenacyclotridecaphane-1^2-carboxylic acid 4,4-dioxide]		0.013 µM	0.411 µM		1.17 µM
Cc1nc2oc1CSc1cc(c3ccccc3c1)OCCCc1c(C(=O)O)n(C)c3c(c(Cl)ccc13)-c1c(nn3c1CCC3)CSC2 [compound 10, 1^6-chloro-1^1,6^4-dimethyl-2^5,2^6-dihydro-1^1H,2^4H-10-oxa-4,8-dithia-6(2,5)-oxazola-1(7,3)-indola-2(3,2)-pyrrolo[1,2-naphthalenacyclotridecaphane-b]pyrazola-9(3,1)-1^2-carboxylic acid]		0.0105 µM	1.97 µM		8.81 µM
Cn1nc2cc1CSc1cc(c3ccccc3c1)OCCCc1c(C(=O)O)n(C)c3c(c(Cl)ccc13)-c1c(nn3c1COCC3)CSC2 [compound 12, (Z)-1^6-chloro-1^1,6^1-dimethyl-2^6,2^7-dihydro-1^1H,2^4H,6^1H-10-oxa-4,8-dithia-2(3,2)-pyrazolo[5,1-c][1,4]oxazina-1(7,3)-indola-6(3,5)-pyrazola-9(3,1)-naphthalenacyclotridecaphane-1^2-carboxylic acid]		0.0109 µM	0.081 µM		0.532 µM
Cn1nc2nc1CSc1cc(c3ccccc3c1)OCCCc1c(C(=O)O)n(C)c3c(c(Cl)ccc13)-c1c(nn3c1CCC3)CSC2 [compound 13, (Z)-1^6-chloro-1^1,6^1-dimethyl-2^5,2^6-dihydro-1^1H,2^4H,6^1H-10-oxa-4,8-dithia-1(7,3)-indola-2(3,2)-pyrrolo[1,2-b]pyrazola-6(3,5)-triazola-9(3,1)-naphthalenacyclotridecaphane-1^2-carboxylic acid]		0.0146 µM	4.3 µM		> 10 µM

The remaining molecules from weak to strong by IC50 [1], led by results:

IC50 (NCI-H929 cells; 24 h)	IC50 [1]	IC50 (NCI-H929 cells; Homo sapiens, NCI-H929, 24 h)	SMILES	IC50 (OPM-2 cells; 24 h)	IC50 (OPM-2 cells; Homo sapiens, OPM-2, 24 h)
	0.038 µM	0.535 µM	Cc1c(Cl)cc2cc1SCc1cc(nn1C)CSCc1nn3c(c1-c1c(Cl)ccc4c(c(C(=O)O)n(C)c14)CCCO2)CCCC3 [Cpd. No. 37, (Z)-1^6,9^5-dichloro-1^1,6^1,9^6-trimethyl-2^4,2^5,2^6 2^7-tetrahydro-1^1H,6^1-10-oxa-4,8-dithia-2(3,2)-pyrazolo[1,5-a]pyridina-1(7,3)-indola-6(3,5)-pyrazola-9(1,3)-benzenacyclotridecaphane-1^2-carboxylic acid]		1.05 µM
	0.0191 µM		Cn1c(C(=O)O)c2c3ccc(Cl)c(c31)-c1c(nn3c1CCC3)CSCC1=NC=C(CSc3cc(c4ccccc4c3)OCCC2)S1 [compound 4, 1^6-chloro-1^1methyl-2^5,2^6-dihydro-1^1H,2^4H-10-oxa-4,8-dithia-6(2,5)-thiazola-1(7,3)-indola-2(3,2)-pyrrolo[1,2-b]pyrazola-9(3,1)-naphthalenacyclotridecaphane-1^2-carboxylic acid]		5.3 µM
0.123 µM	0.015 µM		Cn1nc2cc1CSc1cc(c3ccccc3c1)OCCCc1c(C(=O)O)n(C)c3c(c(Cl)ccc13)-c1c(nn3c1CCC3)CSC2 [compound 1, (Z)-1^6-chloro-1^1,6^1-dimethyl-2^5,2^6-dihydro-1^1H,2^4H,6^1H-10-oxa-4,8-dithia-1(7,3)-indola-2(3,2)-pyrrolo[1,2-b]pyrazola-6(3,5)-pyrazola-9(3,1)-naphthalenacyclotridecaphane-1^2-carboxylic acid]	0.437 µM	
	0.014 µM	0.287 µM	Cn1c(C(=O)O)c2c3ccc(Cl)c(c31)-c1c(nn3c1CCC3)CSCc1coc(n1)CSc1cc(c3ccccc3c1)OCCC2 [compound 2, (Z)-1^6-chloro-1^1-methyl-2^5,2^6-dihydro-1^1H,2^4H-10-oxa-4,8-dithia-6(4,2)-oxazola-1(7,3)-indola-2(3,2)-pyrrolo[1,2-b]pyrazola-9(3,1)-naphthalenacyclotridecaphane-1^2-carboxylic acid]		1.14 µM
	0.0102 µM	2.94 µM	Cn1c(C(=O)O)c2c3ccc(Cl)c(c31)-c1c(nn3c1CCC3)CSCc1cc(on1)CSc1cc(c3ccccc3c1)OCCC2 [compound 8, (Z)-1^6-chloro-1^1-methyl-2^5,2^6-dihydro-1^1H,2^4H-10-oxa-4,8-dithia-6(3,5)-isoxazola-1(7,3)-indola-2(3,2)-pyrrolo[1,2-b]pyrazola-9(3,1)-naphthalenacyclotridecaphane-1^2-carboxylic acid]		> 10 µM
	0.0087 µM	5.11 µM	Cn1c(C(=O)O)c2c3ccc(Cl)c(c31)-c1c(nn3c1CCC3)CSCc1csc(n1)CSc1cc(c3ccccc3c1)OCCC2 [compound 3, (Z)-1^6-chloro-1^1-methyl-2^5,2^6-dihydro-1^1H,2^4H-10-oxa-4,8-dithia-6(4,2)-thiazola-1(7,3)-indola-2(3,2)-pyrrolo[l,2-b]pyrazola-9(3,1)-naphthalenacyclotridecaphane-1^2-carboxylic acid]		6.58 µM
